Experimental data from US20140286892A1, “USE OF A COMPOUND COMPRISING AT LEAST ONE NUCLEOPHILIC FUNCTION FOR CAPTURING CARBONYL COMPOUNDS RESULTING FROM THE REACTION BETWEEN ONE OR MORE COMPOUNDS CONSTITUTING SEBUM AND OZONE” (L'OREAL, priority 2011, published 2014).

Test: Capture of nonanal applied to skin after treatment with the cosmetic composition
Type: in vivo
Conditions: composition with 10% by weight APTES, pH 9 (lactic acid), 4 mg per cm^2 on skin, left to dry, then nonanal applied
Protocol: A cosmetic composition containing 10% by weight of APTES sold under the name Dow Corning is prepared. The pH of the composition is brought to 9 by adding lactic acid. The cosmetic composition is then applied to the skin in a proportion of 4 mg per cm^2 over the whole of the body, and then left to dry. Nonanal, which is an aldehyde that can be formed following the action of ozone on sebum, is then applied to the skin. An aqueous cosmetic composition containing 1.4% by weight of active materials of a vinylformamide/vinylformamine copolymer sold under the name Lupamine 9030 by the company BASF is prepared. It is applied to the skin in a proportion of 4 mg per cm^2 over the whole of the body, and then left to dry. Nonanal, which is a compound structurally close to those which are formed following the action of ozone on sebum, is then applied to the skin.

CCO[Si](CCCN)(OCC)OCC [APTES, γ-aminopropyltriethoxysilane]
trapping of nonanal in the skin: trapped
